Measured values as given in ChEMBL document CHEMBL5223094, “Recent advancements in chromone as a privileged scaffold towards the development of small molecules for neurodegenerative therapeutics” (RSC Med Chem, 2022).

How the values were obtained:
[1] = biological target: Amyloid-beta precursor protein (Homo sapiens) (UniProt P05067); assay: Inhibition of electric eel AChE-indued amyloid beta (1 to 42) (unknown origin) aggregation at 100 uM incubated for 24 hrs by ThT fluorometric assay
[2] = biological target: Cholinesterase (Equus caballus, UniProt P81908); assay: Inhibition of equine serum BuChE using butyrylthiocholine chloride as substrate preincubated for 15 mins followed by substrate addition by Ellman's method
[3] = biological target: Acetylcholinesterase (Electrophorus electricus, UniProt O42275); assay: Inhibition of electric eel AChE using acetylthiocholine iodide as substrate preincubated for 15 mins followed by substrate addition by Ellman's method
[4] = biological target: Amyloid-beta precursor protein (Homo sapiens) (UniProt P05067); assay: Inhibition of self-induced amyloid beta (1 to 42) (unknown origin) aggregation at 10 uM incubated for 48 hrs by ThT fluorometric assay
[5] = biological target: T1, Prostaglandin G/H synthase 2 (Homo sapiens, UniProt P35354); assay: Inhibition of COX2 (unknown origin) using arachidonic acid as substrate preincubated for 5 mins followed by substrate addition by microplate spectrophotometric analysis
T1 sequence (P35354 whole entry): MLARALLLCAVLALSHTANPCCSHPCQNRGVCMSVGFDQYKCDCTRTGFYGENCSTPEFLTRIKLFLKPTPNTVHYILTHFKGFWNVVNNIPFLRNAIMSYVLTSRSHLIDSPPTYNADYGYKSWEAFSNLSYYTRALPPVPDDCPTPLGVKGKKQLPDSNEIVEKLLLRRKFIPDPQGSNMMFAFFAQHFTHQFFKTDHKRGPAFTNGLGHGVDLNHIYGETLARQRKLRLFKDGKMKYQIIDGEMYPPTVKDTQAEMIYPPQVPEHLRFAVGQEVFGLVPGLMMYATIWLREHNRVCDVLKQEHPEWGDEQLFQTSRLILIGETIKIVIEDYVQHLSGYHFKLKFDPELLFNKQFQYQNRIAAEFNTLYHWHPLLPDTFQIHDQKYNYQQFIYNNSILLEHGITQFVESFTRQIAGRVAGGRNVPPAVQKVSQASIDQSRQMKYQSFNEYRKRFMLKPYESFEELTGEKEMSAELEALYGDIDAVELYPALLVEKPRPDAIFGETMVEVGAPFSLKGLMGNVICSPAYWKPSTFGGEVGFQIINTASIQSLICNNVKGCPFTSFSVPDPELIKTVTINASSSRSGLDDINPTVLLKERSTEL

[6] = biological target: Beta-secretase 1 (Homo sapiens, UniProt P56817); assay: Inhibition of recombinant human BACE-1 expressed in baculovirus using Rh-EVNLDAEFK-Quencher as substrate incubated for 60 mins by FRET assay
[7] = biological target: T1, Prostaglandin G/H synthase 2; assay: Inhibition of COX2 (unknown origin)
[8] = Inhibition of soybean LOX15 using arachidonic acid preincubated for 5 mins followed by substrate addition and measured after 5 mins by microplate spectrophotometric analysis; set-up: species or system Glycine max
[9] = biological target: T2, Polyunsaturated fatty acid 5-lipoxygenase (Homo sapiens, UniProt P09917); assay: Inhibition of human LOX5 using arachidonic acid preincubated for 10 mins followed by substrate addition by microplate spectrophotometric analysis
T2 sequence (P09917 whole entry): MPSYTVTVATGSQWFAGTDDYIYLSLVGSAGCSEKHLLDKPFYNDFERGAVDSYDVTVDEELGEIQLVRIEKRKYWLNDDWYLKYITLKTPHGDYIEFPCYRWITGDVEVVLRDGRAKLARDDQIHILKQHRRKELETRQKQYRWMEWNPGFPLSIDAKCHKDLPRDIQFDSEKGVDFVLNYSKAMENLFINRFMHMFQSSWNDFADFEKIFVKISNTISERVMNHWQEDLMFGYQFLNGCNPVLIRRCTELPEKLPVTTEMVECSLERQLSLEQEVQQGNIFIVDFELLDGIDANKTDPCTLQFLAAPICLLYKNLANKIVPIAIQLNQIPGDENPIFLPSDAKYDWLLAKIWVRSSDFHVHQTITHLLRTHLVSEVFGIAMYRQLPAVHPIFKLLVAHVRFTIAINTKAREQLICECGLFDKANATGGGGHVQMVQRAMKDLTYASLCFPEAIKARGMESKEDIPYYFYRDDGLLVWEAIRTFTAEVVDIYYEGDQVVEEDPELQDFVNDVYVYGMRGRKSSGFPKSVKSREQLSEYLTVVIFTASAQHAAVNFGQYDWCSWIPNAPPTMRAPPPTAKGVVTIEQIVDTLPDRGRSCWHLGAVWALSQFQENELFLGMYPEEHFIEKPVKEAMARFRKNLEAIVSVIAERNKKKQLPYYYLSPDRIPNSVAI

[10] = biological target: Acetylcholinesterase (Homo sapiens, UniProt P22303); assay: Inhibition of recombinant human AChE using acetylthiocholine as substrate preincubated for 15 mins followed by substrate addition and measured after 5 mins by DTNB reagent based Ellman's method
[11] = biological target: T3, Cholinesterase (Homo sapiens, UniProt P06276); assay: Inhibition of recombinant human BuChE using butyrylthiocholine as substrate preincubated for 15 mins followed by substrate addition and measured after 5 mins by Ellman's method
[12] = biological target: T2, Polyunsaturated fatty acid 5-lipoxygenase; assay: Inhibition of LOX5 (unknown origin)
[13] = biological target: Amyloid-beta precursor protein (Homo sapiens) (UniProt P05067); assay: Inhibition of amyloid beta (unknown origin); details: concentration not given here
[14] = biological target: Amyloid-beta precursor protein (Homo sapiens) (UniProt P05067); assay: Inhibition of amyloid beta (1 to 42) (unknown origin) aggregation at 50 uM incubated for 24 hrs by ThT fluorometric assay
[15] = Selectivity index, ratio of Ki for displacement of [3H](+)-pentazocine from human sigma 1 receptor expressed in human HEK293 cells to Ki for displacement of (+)-[3H]DTG from rat sigma 2 receptor; type: cell-based
[16] = biological target: T4, Amine oxidase [flavin-containing] B (Homo sapiens, UniProt P27338); assay: Inhibition of recombinant human MAO-B using kynuramine as substrate preincubated for 10 mins followed by enzyme addition and measured after 20 mins by fluorescent microplate reader analysis
T4 sequence (P27338 whole entry): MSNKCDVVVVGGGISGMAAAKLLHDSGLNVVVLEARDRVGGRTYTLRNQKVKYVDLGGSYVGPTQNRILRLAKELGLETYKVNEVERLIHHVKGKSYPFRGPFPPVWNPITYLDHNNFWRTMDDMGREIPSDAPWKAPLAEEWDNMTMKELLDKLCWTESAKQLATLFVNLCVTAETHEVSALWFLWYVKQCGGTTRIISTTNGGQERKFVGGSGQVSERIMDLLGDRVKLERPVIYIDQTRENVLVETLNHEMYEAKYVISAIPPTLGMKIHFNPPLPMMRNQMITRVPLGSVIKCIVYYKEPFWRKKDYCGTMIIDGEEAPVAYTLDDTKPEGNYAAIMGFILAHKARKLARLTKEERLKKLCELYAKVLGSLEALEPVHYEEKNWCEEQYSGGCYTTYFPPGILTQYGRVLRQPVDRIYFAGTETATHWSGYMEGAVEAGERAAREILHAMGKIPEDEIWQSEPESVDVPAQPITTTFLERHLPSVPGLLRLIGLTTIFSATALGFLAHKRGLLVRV

[17] = biological target: T5, Amine oxidase [flavin-containing] A (Homo sapiens, UniProt P21397); assay: Inhibition of recombinant human MAO-A using kynuramine as substrate preincubated for 10 mins followed by enzyme addition and measured after 20 mins by fluorescent microplate reader analysis
T5 sequence (P21397 whole entry): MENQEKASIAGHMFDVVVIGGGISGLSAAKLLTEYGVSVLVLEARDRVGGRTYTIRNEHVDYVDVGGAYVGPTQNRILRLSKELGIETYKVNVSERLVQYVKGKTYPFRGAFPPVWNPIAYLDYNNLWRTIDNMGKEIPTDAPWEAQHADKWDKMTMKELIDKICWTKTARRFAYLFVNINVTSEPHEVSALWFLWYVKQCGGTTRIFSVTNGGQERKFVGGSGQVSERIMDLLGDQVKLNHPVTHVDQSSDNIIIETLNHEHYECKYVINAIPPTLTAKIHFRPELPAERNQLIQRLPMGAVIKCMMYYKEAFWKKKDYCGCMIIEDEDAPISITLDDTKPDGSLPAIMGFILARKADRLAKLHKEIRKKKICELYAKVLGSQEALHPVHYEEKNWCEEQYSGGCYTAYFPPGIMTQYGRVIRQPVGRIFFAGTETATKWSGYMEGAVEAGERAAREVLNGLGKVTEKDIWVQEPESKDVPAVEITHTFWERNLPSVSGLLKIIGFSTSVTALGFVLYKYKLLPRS

[18] = biological target: T4, Amine oxidase [flavin-containing] B; assay: Inhibition of MAO-B (unknown origin)
[19] = species on record: Homo sapiens; assay: Selectivity index, ratio of IC50 for inhibition of recombinant human MAO-B to IC50 for inhibition of recombinant human MAO-A
[20] = Antioxidant activity assessed as DPPH radical scavenging activity incubated for 45 mins by microplate spectrophotometric anlaysis; type: functional
[21] = Antioxidant activity assessed as DPPH radical scavenging activity; type: functional
[22] = biological target: T6, Polyunsaturated fatty acid lipoxygenase ALOX15 (Homo sapiens, UniProt P16050); assay: Inhibition of LOX15 (unknown origin)
T6 sequence (P16050 whole entry): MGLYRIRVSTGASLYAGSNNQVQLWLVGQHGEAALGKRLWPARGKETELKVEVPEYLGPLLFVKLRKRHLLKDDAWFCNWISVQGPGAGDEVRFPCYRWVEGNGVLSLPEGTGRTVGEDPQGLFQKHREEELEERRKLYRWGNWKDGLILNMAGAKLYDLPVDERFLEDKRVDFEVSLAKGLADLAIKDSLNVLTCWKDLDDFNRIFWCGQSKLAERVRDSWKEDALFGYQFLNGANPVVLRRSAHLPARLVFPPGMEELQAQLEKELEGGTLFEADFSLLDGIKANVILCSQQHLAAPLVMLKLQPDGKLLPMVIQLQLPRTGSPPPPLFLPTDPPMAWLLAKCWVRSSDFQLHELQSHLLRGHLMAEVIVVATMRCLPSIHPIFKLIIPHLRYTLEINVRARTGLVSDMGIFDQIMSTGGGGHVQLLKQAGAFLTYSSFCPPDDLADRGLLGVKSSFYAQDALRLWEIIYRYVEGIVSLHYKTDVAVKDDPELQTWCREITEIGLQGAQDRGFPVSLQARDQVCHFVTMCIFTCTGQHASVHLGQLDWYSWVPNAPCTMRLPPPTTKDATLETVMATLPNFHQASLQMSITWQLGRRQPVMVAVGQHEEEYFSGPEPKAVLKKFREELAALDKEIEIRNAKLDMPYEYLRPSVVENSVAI

[23] = biological target: T3, Cholinesterase; assay: Inhibition of BuChE (unknown origin)
[24] = biological target: Amyloid-beta precursor protein (Homo sapiens) (UniProt P05067); assay: Inhibition of self-induced amyloid beta (1 to 42) (unknown origin) aggregation by ThT fluorometric assay; details: concentration not given here

T3 sequence (P06276 whole entry): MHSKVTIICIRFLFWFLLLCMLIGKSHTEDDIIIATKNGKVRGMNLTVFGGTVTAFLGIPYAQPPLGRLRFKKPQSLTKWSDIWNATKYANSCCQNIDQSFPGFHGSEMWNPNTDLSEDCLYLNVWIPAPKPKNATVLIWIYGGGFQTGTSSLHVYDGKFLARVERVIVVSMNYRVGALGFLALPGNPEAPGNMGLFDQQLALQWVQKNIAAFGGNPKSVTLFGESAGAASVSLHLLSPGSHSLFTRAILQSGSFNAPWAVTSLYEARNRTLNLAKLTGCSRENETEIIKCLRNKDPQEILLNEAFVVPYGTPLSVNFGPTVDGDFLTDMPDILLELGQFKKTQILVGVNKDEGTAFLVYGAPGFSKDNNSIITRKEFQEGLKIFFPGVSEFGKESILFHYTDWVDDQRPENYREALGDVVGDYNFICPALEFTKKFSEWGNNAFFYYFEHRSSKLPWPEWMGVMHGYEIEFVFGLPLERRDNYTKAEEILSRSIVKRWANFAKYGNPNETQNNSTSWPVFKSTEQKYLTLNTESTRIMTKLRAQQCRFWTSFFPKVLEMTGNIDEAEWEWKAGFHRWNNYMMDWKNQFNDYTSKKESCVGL
Sequence of Amyloid-beta precursor protein (Homo sapiens) (P05067 whole entry): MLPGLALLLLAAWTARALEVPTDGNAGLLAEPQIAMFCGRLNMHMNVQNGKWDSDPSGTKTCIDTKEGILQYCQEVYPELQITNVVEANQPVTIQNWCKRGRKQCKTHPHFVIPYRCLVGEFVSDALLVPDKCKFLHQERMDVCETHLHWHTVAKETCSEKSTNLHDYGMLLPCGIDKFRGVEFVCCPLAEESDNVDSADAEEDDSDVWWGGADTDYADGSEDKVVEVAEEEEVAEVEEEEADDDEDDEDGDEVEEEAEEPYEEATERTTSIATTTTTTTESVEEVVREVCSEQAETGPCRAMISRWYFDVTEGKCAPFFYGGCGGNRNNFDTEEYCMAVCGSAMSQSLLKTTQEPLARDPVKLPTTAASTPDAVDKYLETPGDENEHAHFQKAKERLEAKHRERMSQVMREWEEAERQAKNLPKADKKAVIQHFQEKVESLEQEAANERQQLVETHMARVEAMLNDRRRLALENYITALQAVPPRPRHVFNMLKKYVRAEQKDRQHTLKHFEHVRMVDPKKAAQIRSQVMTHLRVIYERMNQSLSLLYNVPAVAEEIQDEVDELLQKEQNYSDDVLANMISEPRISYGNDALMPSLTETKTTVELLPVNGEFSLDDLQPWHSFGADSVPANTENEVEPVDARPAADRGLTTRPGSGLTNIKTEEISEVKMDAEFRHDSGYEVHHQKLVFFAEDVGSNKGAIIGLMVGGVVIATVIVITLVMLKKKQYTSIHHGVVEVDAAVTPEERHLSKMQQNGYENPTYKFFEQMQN
Sequence of Acetylcholinesterase (Electrophorus electricus, UniProt O42275) (O42275 whole entry): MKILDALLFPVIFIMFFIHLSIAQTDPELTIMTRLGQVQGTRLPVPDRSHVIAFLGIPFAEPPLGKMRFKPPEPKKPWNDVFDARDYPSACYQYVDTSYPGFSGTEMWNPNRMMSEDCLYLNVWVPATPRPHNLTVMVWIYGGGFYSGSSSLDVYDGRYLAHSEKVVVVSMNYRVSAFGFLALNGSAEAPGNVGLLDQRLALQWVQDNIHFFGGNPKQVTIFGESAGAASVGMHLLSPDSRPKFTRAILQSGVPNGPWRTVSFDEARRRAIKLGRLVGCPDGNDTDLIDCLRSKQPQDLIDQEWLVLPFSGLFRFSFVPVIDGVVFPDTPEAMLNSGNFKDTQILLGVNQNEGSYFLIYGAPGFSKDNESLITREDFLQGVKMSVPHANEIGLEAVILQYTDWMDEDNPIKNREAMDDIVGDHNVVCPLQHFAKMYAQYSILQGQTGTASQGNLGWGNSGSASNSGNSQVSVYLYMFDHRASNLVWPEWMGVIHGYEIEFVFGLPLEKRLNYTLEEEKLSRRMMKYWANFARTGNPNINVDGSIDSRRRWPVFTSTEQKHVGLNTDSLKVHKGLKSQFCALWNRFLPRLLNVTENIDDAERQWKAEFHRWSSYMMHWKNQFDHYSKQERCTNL
Sequence of Cholinesterase (Equus caballus, UniProt P81908) (P81908 whole entry): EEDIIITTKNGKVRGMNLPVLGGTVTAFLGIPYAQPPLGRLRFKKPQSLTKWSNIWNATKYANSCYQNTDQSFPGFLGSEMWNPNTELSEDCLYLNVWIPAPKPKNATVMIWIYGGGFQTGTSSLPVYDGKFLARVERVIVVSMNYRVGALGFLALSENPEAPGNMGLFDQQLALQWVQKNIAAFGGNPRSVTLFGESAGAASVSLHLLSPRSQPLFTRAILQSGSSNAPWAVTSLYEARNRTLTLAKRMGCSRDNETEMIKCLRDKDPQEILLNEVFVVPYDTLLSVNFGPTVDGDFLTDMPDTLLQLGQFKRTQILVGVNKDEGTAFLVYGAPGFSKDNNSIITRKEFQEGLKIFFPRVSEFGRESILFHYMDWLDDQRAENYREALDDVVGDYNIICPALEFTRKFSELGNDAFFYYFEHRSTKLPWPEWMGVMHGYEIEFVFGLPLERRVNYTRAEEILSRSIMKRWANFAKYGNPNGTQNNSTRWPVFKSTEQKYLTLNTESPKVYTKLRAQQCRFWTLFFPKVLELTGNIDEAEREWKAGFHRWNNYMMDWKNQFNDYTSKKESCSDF
Sequence of Acetylcholinesterase (Homo sapiens, UniProt P22303) (P22303 whole entry): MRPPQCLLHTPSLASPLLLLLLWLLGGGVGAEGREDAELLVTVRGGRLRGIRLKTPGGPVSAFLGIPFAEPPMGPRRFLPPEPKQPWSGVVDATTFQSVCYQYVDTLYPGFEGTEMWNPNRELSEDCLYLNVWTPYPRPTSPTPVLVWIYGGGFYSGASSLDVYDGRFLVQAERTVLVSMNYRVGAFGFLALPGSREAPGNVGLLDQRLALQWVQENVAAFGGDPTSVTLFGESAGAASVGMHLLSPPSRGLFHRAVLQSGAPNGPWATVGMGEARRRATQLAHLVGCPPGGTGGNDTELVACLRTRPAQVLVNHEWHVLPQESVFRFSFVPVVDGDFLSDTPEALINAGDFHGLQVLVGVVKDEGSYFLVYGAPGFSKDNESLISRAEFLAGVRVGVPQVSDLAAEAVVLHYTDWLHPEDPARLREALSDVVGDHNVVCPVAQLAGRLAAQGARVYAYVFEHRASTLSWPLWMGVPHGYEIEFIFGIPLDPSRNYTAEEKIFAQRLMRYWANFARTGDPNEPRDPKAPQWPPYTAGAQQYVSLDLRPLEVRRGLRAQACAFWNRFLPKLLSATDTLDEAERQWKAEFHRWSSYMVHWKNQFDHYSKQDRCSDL
Sequence of Beta-secretase 1 (P56817 whole entry): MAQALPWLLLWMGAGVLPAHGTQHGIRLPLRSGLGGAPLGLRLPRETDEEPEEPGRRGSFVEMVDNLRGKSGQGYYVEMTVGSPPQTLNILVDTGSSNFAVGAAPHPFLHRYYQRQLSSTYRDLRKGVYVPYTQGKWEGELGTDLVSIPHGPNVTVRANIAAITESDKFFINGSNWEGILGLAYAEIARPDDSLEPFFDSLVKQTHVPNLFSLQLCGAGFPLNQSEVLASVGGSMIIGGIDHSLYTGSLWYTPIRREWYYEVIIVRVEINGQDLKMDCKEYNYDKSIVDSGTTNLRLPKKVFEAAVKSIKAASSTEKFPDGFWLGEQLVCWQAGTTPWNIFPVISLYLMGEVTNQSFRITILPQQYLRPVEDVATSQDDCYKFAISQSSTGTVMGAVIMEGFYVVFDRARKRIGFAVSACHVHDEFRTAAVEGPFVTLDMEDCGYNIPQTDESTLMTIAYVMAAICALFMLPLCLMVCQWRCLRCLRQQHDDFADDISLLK

SMILES: O=c1cc(-c2ccc(Cl)cc2)oc2cc(OCCCC[n+]3ccccc3)ccc12
- inhibition [1]: 22%
- IC50 [2]: 2 µM
- IC50 [3]: 0.006 µM
- inhibition [4]: 28%

SMILES: O=c1c(/C=N/Nc2ccc(C(F)(F)F)cc2)coc2c1ccc1oc(-c3ccc(Cl)cc3)cc12
- IC50 [5]: 10 µM
- IC50 [6]: 14 µM
- IC50 [7]: 10.4 µM
- IC50 [8]: 15 µM
- IC50 [9]: 29 µM
- IC50 [10]: 5 µM
- IC50 [11]: 10 µM
- IC50 [12]: 28.5 µM

SMILES: COc1cccc2oc3c(c(=O)c12)[C@@H](O)CC3
- inhibition [13]: 80.4%
- inhibition [14]: 80%

SMILES: O=c1ccoc2ccc(OCCCN3CCCCCC3)cc12
- Ratio Ki [15]: 28

SMILES: COc1ccc2oc(-n3ccc4ccccc43)cc(=O)c2c1
- IC50 [16]: 0.63 µM
- IC50 [17]: 0.32 µM

SMILES: COc1ccc2c(=O)c(N3CCN(c4ccccc4)CC3)coc2c1
- IC50 [18]: 0.015 µM
- IC50 [16]: 0.015 µM
- Ratio IC50 [19]: > 6700

SMILES: O=c1ccoc2ccc(OCCCCCN3CCOCC3)cc12
- Ratio Ki [15]: 130

SMILES: CCc1cc[n+](CCCOc2ccc3c(=O)cc(-c4ccc(OC)cc4)oc3c2)cc1
- inhibition [1]: 37%
- IC50 [2]: 0.7 µM
- IC50 [3]: 3 µM
- inhibition [4]: 32%

SMILES: COc1ccc(-c2cc3cc4c(=O)c(C=O)coc4cc3o2)cc1
- IC50 [8]: 10 µM
- IC50 [9]: 15 µM
- IC50 [20]: 18 µM
- IC50 [21]: 18.1 µM
- IC50 [22]: 9.6 µM
- IC50 [10]: 10 µM
- IC50 [11]: 5 µM

SMILES: O=C(CCCCC1CCSS1)NCc1cn(CCCCOc2ccc3c(=O)ccoc3c2)nn1 (centres undefined)
- IC50 [23]: 8 µM
- inhibition [24]: 13%
